Patent US7199113B2, “Pharmaceutically active compounds and methods of use thereof” (priority 1998, dated 2007)

Key:
Format in all cases: biochemical
TF/VIIa complex = biological target: T1, TF/VIIa complex (Homo sapiens, UniProt P13726); assay: TF/VIIa-dependent FIX activation assay; details: for blocking activity in standard assay for TF/VIIa-dependent factor IX activation: statement on FIG. 3; for inhibition of TF/VIIa-dependent FIX activation: statement on Table 4 (FIG. 2(d))
T1 construct: Truncated recombinant human tissue factor (e.g. composed of 243 amino acids) is expressed in E. coli; host or cells: E. coli (TF)
Protocol: In a more particular embodiment, the standard assay preferably includes the following steps: • 1) admixing in a suitable assay solution about 0.7 nM TF/VIIa complex with 300 nM factor IX and 1000 nM factor X, and from between about 0.5 μl to about 10 μl of at least one compound to be tested (optionally dissolved in an appropriate vehicle such as water or dimethylsulfoxide (DMSO)) and incubating the solution at 37° C. from between about a few minutes up to about an hour under conditions suitable for forming FIXa and FXa; • 2) contacting the solution with a suitable chelating agent such as EDTA to stop FIX activation; • 3) contacting the solution with a chromogenic substrate specific for the FXa (e.g., Spectrozyme FXa) and incubating same at 37° C.; and • 4) detecting chromophore in the solution as being indicative of the factor IX activation.
TF/VIIa is not only able to activate FX, but is also able to convert FIX to FIXa. To examine whether the two antagonists 1 and 2 were able to block FIX activation catalyzed by TF/VIIa. FIX activation experiment was conducted. To each well of a 96-well plate, 5 μl of diluted DMSO or compound was added, followed by 45 μl of TF/VIIa (0.67 nM). After mixing and incubating for 15 minutes at 37° C., 10 μl of FIX (300 nM) was added and incubated for 10 minutes at 37° C. 10 μl of EDTA ([…] in 144 mM HEPES, […], 0.576% BSA, pH adjusted to 7.5) was added, followed by addition of 10 μl of FX (1000 nM), 10 μl of polylysine, and 10 μl of Spectrozyme FXa (6 mM). After 3 hour incubation at 37° C., absorbance at 405 nm was measured following addition of 20 μl of 50% acetic acid. The percent inhibition of TF/VIIa-dependent FIX activation was calculated from OD405 nm values in the absence and presence of a compound.

[1] = tested on: human plasma (TF-initiated clotting); assay: Prothrombin time (PT) assay; details: lipidated recombinant tissue factor 1–3 nM, statement on FIG. 4
Protocol: Clot times are generally measured in seconds. Preferred PT assays are typically performed by adding a suitable amount (e.g. about 1 to 3 nM) of lipidated tissue factor to an assay solution that includes conventionally citrated plasma. The PT assay measures TF-mediated blood plasma clot time and is preferably performed by conducting the following steps: • 1) providing about 0.1 ml of citrated human plasma in a suitable assay solution, and combining same with between from about 0.5 μl to 10 μl of at least one compound to be tested (optionally dissolved in vehicle such as water or dimethylsulfoxide (DMSO)) and incubating same at room temperature for about 3 to 10 minutes, • 2) admixing into the solution from between about 0.2 ml (ca. 1–3 nM recombinant human tissue factor) and about 5–10 mM of calcium to initiate plasma clotting; and • 3) measuring the plasma clot time to determine the prothrombin clot time (PT).
The PT assay was performed at 37° C. with an Electra 800 (Medical Automation, Inc.). The PT reaction was initiated by adding 0.2 ml of lipidated recombinant human tissue factor into 0.105 ml of human plasma (Ci-Trol Control Level I, from VWR, Cat. No. 68100-336). […] Following mixing the compound (or DMSO) with plasma (Ci-Trol), 0.2 ml of lipidated reocombinant tissue factor (1–3 nM) is added to the plasma and clotting times were measured within 10 min.

[2] = biological target: T2, human recombinant TF/VIIa complex (lipidated) (Homo sapiens, UniProt P13726); assay: TF/VIIa-dependent FX activation assay
T2 construct: Truncated recombinant human tissue factor (e.g. composed of 243 amino acids) is expressed in E. coli; host or cells: E. coli (TF)

trypsin = assay: Trypsin activity assay; details: statement on Table 1 (FIG. 2(a))
Protocol: For trypsin activity assay, 4 μl of trypsin (100 nM) was first mixed with 61 μl of buffer, 5 μl of DMSO or 5 μl of compound (in DMSO), followed by 15 minute incubation at 37° C. Then 10 μl of substrate S-2222 (4.8 mM) was added to start the reaction. After a 15 minute incubation at 37° C., 20 μl of 50% acetic acid was added to quench the reaction. Absorbance at 405 nm was then measured and the percent inhibition of trypsin activity was calculated from OD405 nm values in the absence and presence of a compound.

T2 sequence (P13726 33-275 limits assumed): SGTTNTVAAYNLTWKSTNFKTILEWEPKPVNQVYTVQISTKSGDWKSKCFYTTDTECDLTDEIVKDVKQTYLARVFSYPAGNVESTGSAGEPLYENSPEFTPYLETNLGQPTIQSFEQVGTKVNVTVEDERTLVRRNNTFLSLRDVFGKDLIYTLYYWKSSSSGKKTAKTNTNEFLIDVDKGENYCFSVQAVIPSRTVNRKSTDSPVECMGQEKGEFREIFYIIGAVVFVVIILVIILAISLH
T2 sequence (P08709 61-212 partner limits assumed): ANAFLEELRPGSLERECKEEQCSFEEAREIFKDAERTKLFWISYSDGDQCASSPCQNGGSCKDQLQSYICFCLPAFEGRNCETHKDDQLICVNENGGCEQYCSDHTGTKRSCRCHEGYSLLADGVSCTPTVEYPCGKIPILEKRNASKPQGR
T2 sequence (P08709 213-466 partner limits assumed): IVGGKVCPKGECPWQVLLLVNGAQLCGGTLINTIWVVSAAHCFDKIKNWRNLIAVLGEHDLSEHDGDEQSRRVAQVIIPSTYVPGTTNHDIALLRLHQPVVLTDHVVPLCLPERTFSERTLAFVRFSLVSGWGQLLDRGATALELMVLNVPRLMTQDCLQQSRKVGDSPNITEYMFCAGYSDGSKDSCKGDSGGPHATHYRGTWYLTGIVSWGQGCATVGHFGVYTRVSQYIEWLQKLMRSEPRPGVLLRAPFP
T1 sequence (P13726 33-275 limits assumed): as the sequence (P13726 33-275 limits assumed) above
T1 sequence (P08709 61-212 partner limits assumed): as the sequence (P08709 61-212 partner limits assumed) above
T1 sequence (P08709 213-466 partner limits assumed): as the sequence (P08709 213-466 partner limits assumed) above

Structure (SMILES): O=P(O)(O)C(CNc1cccc(O)c1)P(=O)(O)O [Compound 1, 1-(bisphosponate)-2-amino(3-hydroxyphenyl)ethyl]
- blocking activity in standard assay for TF/VIIa-dependent factor IX activation (TF/VIIa complex): good blocking activity
- inhibition of TF/VIIa-dependent FIX activation (TF/VIIa complex): inhibit TF/VIIa-dependent FIX activation
- effect on TF-initiated PT times (clotting time) [1]: prolonged TF-initiated PT times significantly
- IC50 ([2]; TF/VIIa, FX and compound added simultaneously, FX 5 nM): 18.1 µM
- IC50 ([2]; TF/VIIa, FX and compound added simultaneously, FX 30 nM): 33.2 µM
- IC50 ([2]; compound preincubated with TF/VIIa 15 minutes at 37° C. prior to FX, FX 5 nM): 8.3 µM
- inhibition of trypsin activity (trypsin): do not inhibit trypsin activity

Structure (SMILES): O=P(O)(O)C(CNc1ccc(O)cc1)P(=O)(O)O [Compound 2]
- blocking activity in standard assay for TF/VIIa-dependent factor IX activation (TF/VIIa complex): good blocking activity
- inhibition of TF/VIIa-dependent FIX activation (TF/VIIa complex): inhibit TF/VIIa-dependent FIX activation
- effect on TF-initiated PT times (clotting time) [1]: prolonged TF-initiated PT times significantly
- inhibition of trypsin activity (trypsin): do not inhibit trypsin activity
